Where a name gives a salt, the structure may show the parent alone.
What was measured:
[1] = biological target: T1, human neuropeptide Y5 receptor (Homo sapiens, UniProt Q15761); experiment: NPY5 HTS centrifugation assay: competition with 125I-PYY for binding to membranes of NPY5-transfected HEK293 cells; conditions: for inhibition at 0.3 µM: % inhibition of 125I-PYY binding at 300 nM compound, read-out: % Inh @ 300 nM; for inhibition at 3 µM: % inhibition of 125I-PYY binding at 3 uM compound
T1 construct: expressed in transfected cells; membranes
T1 sequence (Q15761 1-445): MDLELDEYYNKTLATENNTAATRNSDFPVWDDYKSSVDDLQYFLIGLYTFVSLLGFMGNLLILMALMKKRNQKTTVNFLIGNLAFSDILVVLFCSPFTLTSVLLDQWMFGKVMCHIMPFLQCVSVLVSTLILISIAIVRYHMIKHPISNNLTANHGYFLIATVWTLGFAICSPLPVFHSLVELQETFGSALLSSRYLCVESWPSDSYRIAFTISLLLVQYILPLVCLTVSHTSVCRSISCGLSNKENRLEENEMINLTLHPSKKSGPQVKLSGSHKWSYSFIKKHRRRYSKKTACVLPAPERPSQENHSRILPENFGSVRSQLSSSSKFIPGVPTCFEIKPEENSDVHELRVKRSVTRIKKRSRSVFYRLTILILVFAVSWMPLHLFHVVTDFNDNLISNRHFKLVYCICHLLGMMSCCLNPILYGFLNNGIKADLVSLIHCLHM
Experimental: NPY5 HTS Centrifugation Assay
The compounds described in this invention were evaluated for binding to the human neuropeptide Y5 receptor.
The human NPY5 receptor cDNA (Genbank Accession number U66275) was inserted into the vector pClneo (Invitrogen) and transfected into human embryonic kidney cells (HEK-293) via calcium phosphate method (Cullen 1987). Stably transfected cells were selected with G-418 (600 μg/mL). Stably transfected cells served as the source for the membranes for the NPY5 receptor binding assay.
NPY5-transfected HEK293 cells were grown to confluence in 150 cm^2 culture dishes. Cells were washed once with phosphate-buffered saline (Gibco Cat# 14040-133). Cells were then incubated in phosphate-buffered saline without calcium and without magnesium, supplemented with 2 mM EDTA. Cells were incubated for 10 minutes at room temperature and the cells were collected by repetitive pipeting. Cells were formed into pellets and then frozen at −80° C. until needed. Frozen pellets were homogenized with a polytron at full speed for 12 seconds in a homogenization buffer (20 mM Tris HCl, 5 mM EDTA, pH 7.4). Homogenates were centrifuged for 5 minutes at 4° C. at 200 g. Supernatants were transferred to corex tubes and centrifuged for 25 minutes at 28,000 g. Pellets were re-suspended in Binding (20 mM HEPES, 10 mM NaCl, 0.22 mM KH2PO4, 1.3 mM CaCl2, 0.8 mM MgSO4, pH 7.4). Membranes were kept on ice until use.
A competition binding assay, known to those skilled in the art, was used in which compounds of formula A compete with ^125I-PYY for binding to cell membranes. In simple terms, the less ^125I-PYY bound to the membranes implies that a compound is a good inhibitor (competitor). Bound ^125I-PYY is determined by centrifugation of membranes, aspirating supernatant, washing away residual ^125I-PYY and subsequently counting the bound sample in a gcounter.
Compounds to be tested were prepared as 10× stocks in binding buffer and added first to assay tubes (RIA vials, Sarstedt). Twenty (20) μL of each 10× compound stock is pipeted into vials and 80 μL of ^125I-PYY (NEN catalog number NEX240), which has been diluted to a concentration of 200 pM in 0.25% BSA in binding buffer, is added to the compound tubes (final concentration of ^125I-PYY is 80 pM). To each tube is added 100 μL of membranes and the mixture is agitated by pipeting 2 times. Samples are incubated for 1 hr at room temperature. Aluminum cast plates (Sarstedt) containing the vials are then centrifuged 10 minutes at 3200 rpm in a Sorvall RT6000. Supernatant is then aspirated. To each vial 400 μL PBS is added and this is then aspirated again. Vials are then put in carrier polypropylene 12×75 tube and counted in gamma counter (Packard). Non-specific binding is determined in the presence of 300 nM NPY. Percent inhibition of ^125I-PYY binding is calculated by subtracting non-specific binding from the test samples (compound (I)), taking these counts and dividing by total binding, and multiplying by 100. Inhibitory concentration values (IC50) of compounds that show appreciable inhibition of ^125I-PYY binding are calculated by obtaining percent inhibition of ^125I-PYY binding values at different concentrations of the test compound, and using a graphing program such as GraphPad Prism (San Diego, Calif.) to calculate the concentration of test compound that inhibits fifty-percent of ^125I-PYY binding (Table 4).

Food-Deprived Rats = experiment: Rodent feeding model: measurement of food intake in food-deprived rats; format: in vivo, Male Long-Evans rats; conditions: for Food Consumption (avg. grams) 0-2 h / Food Consumption (avg. grams) 0-4 h / Food Consumption (avg. grams) 0-6 h / Food Consumption (avg. grams) 2-6 h: 18 h fasted rats; for Food Consumption 0-2 h (% chg.) / Food Consumption 0-4 h (% chg.) / Food Consumption 0-6 h (% chg.) / Food Consumption 2-6 h (% chg.): change vs vehicle, negative = reduction
From the text: Measurement of Food Intake in Food-Deprived Rats
Male Long-Evans rats (180-200 grams) are housed individually and are maintained on once-a-day feeding schedule (i.e., 10 a.m. until 4 p.m.) for five days following quarantine to allow the animals to acclimate to feeding on powdered chow (#5002 PMI Certified Rodent Meal) during the allotted time. The chow is made available in a open jar, anchored in the cage by a wire, with a metal follower covering the food to minimize spillage. Water is available ad-libitum.
Animals are fasted for 18 hours prior to testing. At the end of the fasting period, animal are administered either compounds of the invention or vehicle. Vehicle and test compounds are administered either orally (5 mL/kg) 60 minutes prior to the experiment, or 30 minutes prior when given subcutaneously (1 mL/kg) or intraperitoneally (1 mL/kg). Compounds of the invention are administered orally as a suspension in aqueous 0.5% methylcellulose-0.4% Tween 80, or intraperitoneally as a solution or suspension in PEG 200; compound concentrations typically range from 1 mg/kg to 100 mg/kg, preferably from 10-30 mg/kg. Food intake is measured at 2, 4, and 6 hours after administration by weighing the special jar containing the food before the experiment and at the specified times. Upon completion of the experiment, all animals are given a one-week washout period before retesting.
Percent reduction of food consumption is calculated subtracting the grams of food consumed by the treated group from the grams of food consumed by the control group divided by the grams of food consumed by the control group, multiplied by 100. A negative value indicates a reduction in food consumption and a positive value indicates an increase in food consumption. [formula]

O=S(=O)(NC[C@H]1CC[C@H](CNC2=N[C@@H]3CCc4cc(O)ccc4[C@@H]3C2)CC1)c1ccccc1 [Compound 10, N-[[trans-4-[[(cis-3a,4,5,9b-ttrahydro-7-hydroxy-1H-benz[e]indol-2-yl)amino]methyl]cyclohexyl]methyl]benzenesulfonamide hydrochloride]
inhibition at 0.3 µM [1]: 74% | inhibition at 3 µM [1]: 97% | Food Consumption (avg. grams) 0-2 h (Food-Deprived Rats; 30 mg/kg i.p.): 4.38 g | Food Consumption 0-2 h (% chg.) (Food-Deprived Rats; 30 mg/kg i.p.): (−57%) | Food Consumption (avg. grams) 0-4 h (Food-Deprived Rats; 30 mg/kg i.p.): 6.43 g | Food Consumption 0-4 h (% chg.) (Food-Deprived Rats; 30 mg/kg i.p.): (−53%) | Food Consumption (avg. grams) 0-6 h (Food-Deprived Rats; 30 mg/kg i.p.): 10.75 g | Food Consumption 0-6 h (% chg.) (Food-Deprived Rats; 30 mg/kg i.p.): (−49%) | Food Consumption (avg. grams) 2-6 h (Food-Deprived Rats; 30 mg/kg i.p.): 6.37 g | Food Consumption 2-6 h (% chg.) (Food-Deprived Rats; 30 mg/kg i.p.): (−41%)

COc1ccc2c(c1)CC[C@@H]1N=C(NC[C@H]3CC[C@H](CNS(=O)(=O)c4ccccc4)CC3)C[C@H]21 (relative stereo) [Compound 8, N-[[trans-4-[[(cis-3a,4,5,9b-tetrahydro-7-methoxy-1H-benz[e]indol-2-yl)amino]methyl]cyclohexyl]methyl]benzenesulfonamide]
inhibition at 0.3 µM [1]: 85% | inhibition at 3 µM [1]: 98% | Food Consumption (avg. grams) 0-2 h (Food-Deprived Rats; 10 mg/kg i.p.): 4.38 g | Food Consumption 0-2 h (% chg.) (Food-Deprived Rats; 10 mg/kg i.p.): (−52%) | Food Consumption (avg. grams) 0-4 h (Food-Deprived Rats; 10 mg/kg i.p.): 7.88 g | Food Consumption 0-4 h (% chg.) (Food-Deprived Rats; 10 mg/kg i.p.): (−38%) | Food Consumption (avg. grams) 0-6 h (Food-Deprived Rats; 10 mg/kg i.p.): 12.00 g | Food Consumption 0-6 h (% chg.) (Food-Deprived Rats; 10 mg/kg i.p.): (−43%) | Food Consumption (avg. grams) 2-6 h (Food-Deprived Rats; 10 mg/kg i.p.): 7.63 g | Food Consumption 2-6 h (% chg.) (Food-Deprived Rats; 10 mg/kg i.p.): (−37%)

Source: patent publication US6841552B1, “3a,4,5,9b-tetrahydro-1H-benz[e]indol-2-yl amine-derived neuropeptide Y receptors ligands useful in the treatment of obesity and other disorders” (Ortho-McNeil Pharmaceutical, Inc., priority 1999, dated 2005)
